Experimental data as given in patent US8449864B2 (The Board of Trustees of the Leland Stanford Junior …, priority 2006, dated 2013).
One block for each molecule: values may come before it. Peptide text beside a SMILES is read from it.

Assays:
PLCs containing PMCs = assay: NT degradation by peritoneal lavage cells (PLCs) containing peritoneal mast cells; type: cell-based, mouse; conditions: Kit+/+ PLCs pre-treated 15 min at 37° C. (chym 100 μM, CFp 10 μM, PCI 10 μg/ml, p03 100 nM); NT 10 μM, 30 min
Procedure: FIG. 5. Neurolysin and carboxypeptidase inhibitors prevent NT degradation by peritoneal mast cells. Kit^+/+ PLCs containing 5×10^4 PMCs were pre-treated for 15 min at 37° C. with one of the following protease inhibitors: chymostatin (chym, chymase inhibitor at 100 μM), CFp-Ala-Ala-Phe-pAB (CFp, […] at 10 μM only for PLCs), potato carboxypeptidase inhibitor (PCI, carboxypeptidase inhibitor at 10 μg/ml) and phosphodiepryl 03 (p03, neurolysin inhibitor at 100 nM for PLCs. Cells were then incubated with NT (10 μM) for 30 min at 37° C. Results are the percentage of NT remaining after incubation with cells compared to the starting concentration of NT (n=4-9 per group).
FIG. 12. (a), PLCs containing 1×10^4 PMCs obtained from either wild type C57BL/6 mice, Ntsr1-deficient (Ntsr1^−/−) mice or Ntsr2-deficient (Ntsr2^−/−) mice were incubated for 2 h with ^3H-5-hydroxytryptamine (3H-serotonin) at 37° C. and stimulated for 15 min at 37° C. with either ET-1 (4 μM) or NT (10 μM). (b), PLCs containing 1×10^4 PMCs obtained from C57BL/6 mice were incubated for 2 h with ^3H-serotonin and stimulated for 15 min with either ET-1 (4 μM) or NT (10 μM). In a separate set of experiments, cells were pre-incubated with BAPTA-AM (Sigma) ([…], 15 min at […]) before the addition of the stimuli. Results are mean ±SEM of 3 experiments. (c), mMC-CPA activity was measured in supernatants obtained from Kit^+/+ PLCs containing 5×10^4 PMCs that were stimulated for 30 min at 37° C. with either ET-1 (4 μM) or NT (10 μM). (d), PLCs containing 5×10^4 PMCs from C57BL/6J mice were pre-treated for 15 min at 37° C. with BAPTA-AM ([…], a Ca^2+ chelator that can reduce MC degranulation) and then incubated with NT (10 μM) for 30 min at 37° C. Results are expressed as the percentage of NT remaining after incubation with cells compared to that in samples of NT incubated in vehicle alone at 37° C. (data were pooled from triplicate determinations in two independent experiments that gave similar results). (e), Expression of mRNA for NT-receptors in the AtT20 neuroendocrine cell line, the mast cell line C1.MC/C57.1, C57BL/6J BMCMCs, Kit^+/+ BMCMCs and peritoneal mast cells purified from Kit^+/+ mice (PMCs).
NT, ET-1, C-reactive protein, and TNF measurements. Concentrations of NT, C-reactive protein, ET-1 and TNF were measured by ELISA (Bachem Peninsula Labs for NT; Biomedica, Vienna for C-reactive protein and ET-1; BD Biosciences for TNF). […] The detection limits for the ELISA kits were: 24 fmol/ml (NT), 0.048 fmol/ml (ET-1), 0.124 ng/ml (C-reactive protein) and […] (human TNF).

NTR1 = conditions: different tissues and cells from various species; cited from earlier work
neurolysin (NLN) = molecular target: T1, neurolysin (NLN) (Mus musculus, UniProt Q91YP2); assay: NT degradation by membrane and cytosol preparations of BMCMCs; type: biochemical; conditions: Pro-Ile 10 mM; NT 10 μM
T1 construct: membrane and cytosol preparations obtained from Kit^+/+ BMCMCs (2×10^6 cells/preparation); endogenous in cells; host or cells: Kit+/+ mouse bone marrow-derived cultured mast cells (BMCMCs), membrane and cytosol fractions
Procedure: FIG. 8. MC-associated neurolysin (NLN) contributes to the MCs' ability to reduce NT-induced hypotension. (a) Identification of NLN in the membrane and cytosol fractions of C1.MC/C57.1 MCs and C57BL/6J BMCMCs. […] Results are expressed as the percentage of NT remaining after incubation with membrane or cytosol preparations compared to that in samples of NT incubated in vehicle alone (n=3). (c, d) Degradation of NT (10 μM) by A23187 (5 μM)-activated Kit^+/+ BMCMCs (2×10^5) that were pre-treated with either empty vector, Neurolysin-short hairpin RNA (NLN-shRNA) or mouse MC carpoxypeptidase A-short hairpin RNA (mMC-CPA-shRNA). Cells were incubated with NT for 30 min at 37° C. Results are expressed as the percentage of NT remaining in the samples compared to that in samples of NT incubated in vehicle alone at 37° C. (n=3). (e) Changes in MAP versus baseline levels (=“0”, measured 3 min after injection of 300 μl saline, i.p.) at various times after injection of NT (6 nmol in 300 μl saline, i.p.) in Kit^W/W-v mice which had been engrafted i.p. with Kit^+/+ BMCMCs treated with either empty vector (empty vector MCs→Kit^W/W-v), NLN-shRNA (NLN-shRNA MCs→Kit^W/W-v) or mMC-CPA-shRNA (mMC-CPA-shRNA MCs→Kit^W/W-v). (f) MCs in the peritoneal cavity (arrows, MCs; scale bars, 100 μm; May Grunwald-modified Giemsa stain) and mesentery (arrows, MCs; scale bars, 100 μm; Czaba stain). […]

PMCs = assay: Internalization of rhodamine-labelled peptide by PMCs (flow cytometry, confocal microscopy); type: cell-based, mouse
Procedure: FIG. 11. […] P<0.0001 versus corresponding NT- or ET-1-injected groups. […] (b) Flow cytometry analysis and confocal microscopy of C57BL/6 PMCs incubated with NT-rhodamine (50 μM) (red) at 4° C. (0 min) or placed at 37° C. for 5 or 15 min. PMCs were identified among other PLCs by flow cytometry by staining of IgE bound to the MCs (green). […] (c) PLCs containing 5×10^4 PMCs from either C57BL/6, Ntsr1^−/− or Ntsr2^−/− mice were incubated with NT (10 μM) for 30 min at 37° C. Results are expressed as the percentage of NT remaining after incubation with cells compared to that in samples of NT incubated in vehicle alone at 37° C. (data were pooled from triplicate determinations in two independent experiments that gave similar results). (d,e) Changes in MAP vs. baseline levels (=“0”, measured 3 min after injection of 300 μl saline, i.p.) at various times after injection of NT (6 nmol in 300 μl saline, i.p.) (d), and NT levels in the peritoneal fluids of these mice at 30 min after injection (e), in Kit^W/W-v mice that had been engrafted i.p. with BMCMCs of C57BL/6-Ntsr1^+/+ or -Ntsr1^−/− origin. (f) Survival after CLP (50% ligation; single puncture with 22 G needle) in Kit^W/W-v mice that had been engrafted i.p. with BMCMCs of C57BL/6-Ntsr1^+/+ or -Ntsr1^−/− origin.
FIGS. 19a-19f. (a-c) Flow cytometry analysis and (d, e) confocal microscopy of Ntsr+/+ (a, c) or Ntsr1−/−2−/− (b) PMCs pre-loaded with either NT-rhodamine (a, b) or scrambled peptide-rhodamine (c) ([…]) (red) that were placed at 37° C. for the indicated times. Control cells pre-loaded with either NT-rhodamine or scrambled peptide-rhodamine were maintained at 4° C. (“0 min”). PMCs were identified among other peritoneal lavage cells (PLCs) in confocal microscopy by green staining of IgE bound to the PMC surface and in flow cytometry by staining of c-Kit receptors. (f) Fold increase in mean fluorescence intensity by flow cytometry in PMCs versus other (non mast cell) PLCs obtained from Ntsr+/+ mice incubated for 15 min at 37° C. with NT-rhodamine when compared to control cells that were maintained at 4° C. for 15 min. Data are representative of (a-e) or pooled from (f) the three experiments performed, each of which gave similar results.
Flow cytomety and confocal microscopy. Cells were incubated for 16 h in DMEM+10% FCS+2 μg/ml IgE (hybridoma H1-DNP-ε26). Cells were washed and resuspended in DMEM+10% fetal calf serum (FCS)+NT-rhodamine (AnaSpec) (50 μM) and placed at 4° C. for 1 h. Some cells then were placed at 37° C. for 5 or 15 min. IgE Abs bound to PMCs were stained with FITC-conjugated anti-mouse IgE Abs (BD Biosciences). Levels of surface IgE were analyzed by flow cytometry, as described above.

T1 sequence (Q91YP2 38-704): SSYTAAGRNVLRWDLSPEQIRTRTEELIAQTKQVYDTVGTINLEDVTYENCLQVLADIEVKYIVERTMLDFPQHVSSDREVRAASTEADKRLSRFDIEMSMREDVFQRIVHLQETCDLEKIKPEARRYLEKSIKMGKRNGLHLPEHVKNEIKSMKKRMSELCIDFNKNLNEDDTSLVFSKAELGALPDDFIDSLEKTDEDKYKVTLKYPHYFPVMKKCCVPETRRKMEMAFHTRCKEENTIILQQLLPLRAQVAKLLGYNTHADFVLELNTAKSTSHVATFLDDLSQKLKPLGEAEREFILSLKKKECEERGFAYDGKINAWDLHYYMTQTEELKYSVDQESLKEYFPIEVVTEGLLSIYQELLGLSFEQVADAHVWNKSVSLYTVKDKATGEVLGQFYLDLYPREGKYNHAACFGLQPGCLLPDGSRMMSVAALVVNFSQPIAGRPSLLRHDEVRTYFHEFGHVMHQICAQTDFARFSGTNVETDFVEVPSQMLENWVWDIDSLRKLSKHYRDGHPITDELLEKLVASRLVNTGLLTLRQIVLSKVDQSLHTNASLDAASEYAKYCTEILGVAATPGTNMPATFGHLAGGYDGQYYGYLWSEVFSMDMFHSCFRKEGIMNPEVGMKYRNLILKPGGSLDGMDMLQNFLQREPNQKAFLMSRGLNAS

Molecule: PCI: potato carboxypeptidase inhibitor; mouse MC carboxypeptidase A (mMC-CPA) inhibitor (QQHADPICNKPCKTHDDCSGAWFCQACWNSARTCGPYVG; UniProt P01075 1-39, looked up)
- NT degradation by PLCs in presence of protease inhibitor (PLCs containing PMCs): significantly inhibited

Molecule: COc1cccc(OC)c1-c1cc(C(=O)NC2(C(=O)O)C3CC4CC(C3)CC2C4)nn1-c1ccnc2cc(Cl)ccc12 (stereo not drawn) [SR48692]
- affinity for NTR1 (NTR1): nanomolar affinity

Molecule: CC(NC(=O)C(C)NC(CCc1ccccc1)C(=O)O)C(=O)NC(Cc1ccccc1)C(=O)Nc1ccc(C(=O)O)cc1 (stereo not drawn) [CFp-Ala-Ala-Phe-pAB]
- NT degradation by PLCs in presence of protease inhibitor (PLCs containing PMCs): did not prevent NT degradation

Molecule: CC[C@H](C)[C@H](NC(=O)[C@@H]1CCCN1)C(=O)O [Pro-Ile] (H-Pro-Ile-OH)
- NT degradation by membrane or cytosol preparations of BMCMCs (neurolysin (NLN)): almost completely inhibited

- binding and internalization by PMCs (PMCs; C57BL/6 PMCs, 50 μM, 37° C. for 5 or 15 min): bound and internalized
Molecule: NT-rhodamine: rhodamine-labelled NT
- internalization by PMCs lacking Ntsr1 and Ntsr2 (PMCs; Ntsr1−/−2−/− PMCs, 10 µM, 37° C.): peptide internalization did not occur
- uptake by PMCs compared with non mast cells of the peritoneal cavity (PMCs; Ntsr+/+ PLCs, 15 min at 37° C.): more efficient
- internalization by PMCs (PMCs; Ntsr+/+ PMCs, 10 µM, 37° C.): able to internalize

Molecule: CC(C)C[C@H](NC(=O)[C@@H](NC(=O)N[C@@H](Cc1ccccc1)C(=O)O)[C@@H]1CCN=C(N)N1)C(=O)N[C@H](C=O)Cc1ccccc1 [chymostatin]
- NT degradation by PLCs in presence of protease inhibitor (PLCs containing PMCs): did not prevent NT degradation
